# According to patent publication US9421204B2, “Oligomer modified diaromatic substituted compounds” (priority 2010, dated 2016):
# Structures can show the parent of a compound that is named as a salt.
# Tests used:
# in vitro = in vitro ADME; conditions: human
# Procedure: (§1) Each determination was performed in duplicate.
# (§2) Vr is the volume of the receiver compartment in cm^3.
# (§3) Vd is the volume of the donor compartment in cm^3.
# (§4) A is the area of the cell monolayer (1.13 cm^2 for 12-well Transwell®).
# (§5) CN is the nominal dosing concentration of the dosing solution in μM.
# (§6) CA is the average of the nominal dosing concentration and the measured 120 minute donor concentration in μM.
# (§7) Cr^final is the receiver concentration in μM at the end of the incubation period.
# (§8) Cd^final is the concentration of the donor in μM at the end of the incubation period.
# Caco-2 monolayers = assay: in vitro; assay type: in vitro ADME; conditions: human, Caco-2, 2 h, 10 μM, pH 7.4
# Procedure: as §1, §2, §3, §4, §5, §6, §7, §8
# [1] = Log P determination (Sirius GLpKa); assay type: physicochemical
# Procedure: The Sirius GLpKa instrument is used to determine the pKa and Log P. A blank standardization has to be completed first and passed in order to conduct the compound experiments. The solutions used by the instrument for the blank titration include water, a pH solution, and a surfactant (TRITON X-100). The TRITON X-100 was purchased commercially from Sirus. The 0.5% solution of TRITON X-100 was used in the experiment. In a 1 L volumetric flask 5 mls of TRITON X-100 is added and MILLI Q water to volume. The vessels used by the instrument were filled to ⅓ of their volume with each solution. Therefore the assay tray contains one vessel for water, pH solution, and surfactant for the blank run. The temperature of the water bath for the instrument is 25° C. The blank is calculated as an average of three “good” experiments. The “good” was denoted by a green check mark next to the assay number in the computer software. Once the blank was run successfully the instrument was ready to conduct the experiments. An additional method has to be set up for the Log P determinations for each compound. The conjugates are weighed into vessels in the same manner as for the previous experiment, i.e., 10% of the molecular weight. The vessels are placed in the assay tray of the instrument. The experimental parameters are entered into the computer. These included sample weight, molecular weight, assay type (Partition Log P), number of assays (three), and pKa value of the parent drug from the previous experiment. The run was started. There are three measurements for each run that are averaged to obtain the final results from the data points collected in the calculation software. All runs were denoted as “good” by the green check mark next to the assay number.
# [2] = pKa determination (Sirius GLpKa); assay type: physicochemical
# Procedure: The Sirius GLpKa instrument is used to determine the pKa and Log P. A blank standardization has to be completed first and passed in order to conduct the compound experiments. The solutions used by the instrument for the blank titration include water, a pH solution, and a surfactant (TRITON X-100). The TRITON X-100 was purchased commercially from Sirus. The 0.5% solution of TRITON X-100 was used in the experiment. In a 1 L volumetric flask 5 mls of TRITON X-100 is added and MILLI Q water to volume. The vessels used by the instrument were filled to ⅓ of their volume with each solution. Therefore the assay tray contains one vessel for water, pH solution, and surfactant for the blank run. The temperature of the water bath for the instrument is 25° C. The blank is calculated as an average of three “good” experiments. The “good” was denoted by a green check mark next to the assay number in the computer software. Once the blank was run successfully the instrument was ready to conduct the experiments.
# The pKa has to be determined first in order to calculate the Log P. The API is used to determine the pKa needed for the Log P experiment followed by the conjugates. The base compound was first weighed into a vessel. The amount weighed for each sample was 10% of the molecular weight of the compound. The same procedure was followed for each conjugate. The vessels were placed in the assay tray of the instrument. A method had to be set up for the pKa run. The experimental parameters are entered into the computer software. These included sample weight, molecular weight, assay type (aqueous pKa), number of assays (three), and titration range (generally 3.5-12). The run was started. There are three measurements for each run that are averaged to obtain the final results from the data points collected in the calculation software. All runs were denoted as “good” by the green check mark next to the assay number.
# [3] = Toxicity XTT in CEM-SS cells (cytoprotection assay); assay type: cell-based; conditions: human, CEM-SS TC50
# Procedure: (§9) Cell Preparation—CEM-SS cells were passaged in T-75 flasks prior to use in the antiviral assay. On the day preceding the assay, the cells were split 1:2 to assure they were in an exponential growth phase at the time of infection. Total cell and viability quantification was performed using a hemocytometer and Trypan Blue dye exclusion. Cell viability was greater than 95% for the cells to be utilized in the assay. The cells were resuspended at 5×10^4 cells per ml in tissue culture medium and added to the drug containing microtiter plates in a volume of 50 μL.
# (§10) Plate Format—Each plate contains cell control wells (cells only), virus control wells (cells plus virus), drug toxicity wells (cells plus drug only), drug colorimetric control wells (drug only) as well as experimental wells (drug plus cells plus virus). Samples were tested in triplicate with eleven half-log dilutions per compound.
# (§11) Efficacy and Toxicity XTT—Following incubation at 37° C. in a 5% CO2 incubator, the test plates were stained with the tetrazolium dye XTT (2,3-bis(2-methoxy-4-nitro-5-sulfophenyl)-5-[(phenylamino)carbonyl]-2H-tetrazolium hydroxide). XTT-tetrazolium is metabolized by the mitochondrial enzymes of metabolically active cells to a soluble formazan product, allowing rapid quantitative analysis of the inhibition of HIV induced cell killing by anti-HIV test substances. XTT solution was prepared daily as a stock of 1 mg/mL in RPMI1640. Phenazine methosulfate (PMS) solution was prepared at 0.15 mg/mL in PBS and stored in the dark at −20° C. XTT/PMS stock was prepared immediately before use by adding 40 μL of PMS per ml of XTT solution. Fifty microliters of XTT/PMS was added to each well of the plate and the plate was re-incubated for 4 hours at 37° C. Plates were sealed with adhesive plate sealers and shaken gently or inverted several times to mix the soluble fosmazan product and the plate was read spectrophotometrically at 450/650 nm with a Molecular Devices Vmax plate reader.
# (§12) Data Analysis—Raw data was collected from the Softmax Pro 4.6 software and imported into a Excel XLFit4 spreadsheet for analysis by four parameter curve fit calculations. Both antiviral activity and toxicity are calculated.
# CEM-SS cells = assay: as above; assay type: cell-based; conditions: human
# Procedure: as §9, §10, §11, §12
compound,measurement,setting,value
"CC(C)Nc1cccnc1N1CCN(C(=O)c2cc3cc(NS(C)(=O)=O)ccc3[nH]2)CC1 [Delavirdine Mesylate, reference compound]","Papp A→B at 2 hours, 10 μM","in vitro; Caco-2, pH 7.4, Average Papp, A→B",9.87 ×10⁻⁶ cm/s
same,"Papp B→A at 2 hours, 10 μM","in vitro; Caco-2, pH 7.4, Average Papp, B→A",67.9 ×10⁻⁶ cm/s
same,"recovery at 2 h, 10 μM","in vitro; Caco-2, pH 7.4, Recovery (%) A→B",65%
same,Recovery (%) A→B,Caco-2 monolayers,82%
same,Recovery (%) B→A,Caco-2 monolayers,86%
same,logP,[1],3.5
same,pKa1,[2],4.323
same,pKa2,[2],9.272
same,CC50,[3],27.2 µM
same,CC50,CEM-SS cells,52.4 µM
